Results on one molecule are retold here after patent US9028887B2, “Method improve spatial memory via pterostilbene administration” (The United States of America, as represented by the …, priority 2007, dated 2015).

In data set [1] the test system is M1-transfected COS-7 cells. The data set is described as follows: Calcium recovery in M1-transfected COS-7 cells after dopamine treatment and oxotremorine-induced depolarization. Type of data set: cell-based, African green monkey. The settings on record: 10 μg/ml pre-treatment 45 min, then 1 mM dopamine 4 hours; 750 μM oxotremorine depolarization. How it is done: COS-7 cells, a cell line derived from African green monkey kidney, were grown in Dulbecco's Modified Eagle's Medium (D-MEM) supplemented with 10% fetal bovine serum (FBS) and containing 100 U/ml penicillin and 100 μg/ml streptomycin sulfate. Twenty four hours prior to transfection, cells were harvested with trypsin, counted, and plated on […] tissue culture plates at 5×10^6 cells/plate. Cells were transiently transfected with rat muscarinic receptor subtype 1 DNA by the DEAE-dextran method. After transfection, cells were incubated 2.5 hours in growth medium containing 80 μM chloroquine to minimize degradation of the DNA. Transfected cells were then maintained in growth medium for 48 hours, harvested with trypsin, plated to coverslips in 35 mm plates for calcium imaging, and incubated overnight.
Dis. 6:403-411, and hereby incorporated by reference. The BB extract and stilbenes were dissolved in growth media and cells were subsequently incubated for 45 minutes at 37° C. with the treated growth medium, followed by dopamine administration for 4 hours. Following these incubations, the cells were washed three times with extract-free growth medium prior to testing.
Calcium imaging was carried out using a Medical Systems Corp. open perfusion micro-incubator (37° C.) with temperature control that was mounted on the stage of a Nikon Eclipse TE200U microscope and illuminated with a fluorescent light source. Transfected cells were loaded with Fura-2/acetoxymethyl ester (2 μM) in loading medium (99% DMEM 1% FES) for 40 minutes at 37° C. with 5% CO2.
Real time analyses of calcium flux prior to and following 750 μM oxotremorine-induced depolarization were then carried out using Simple PCI software (Compix, Inc. Mars, Pa.). Response and recovery were then determined for each sample. […] Recovery was determined by assessing the time (within 300 sec) for the Ca^2+ levels to return to 20% of the increase following depolarization in the cells that responded. Data was analyzed by Kruskal-Wallis one-way analysis of variance and Mann-Whitney U tests.

The nature of data set [2]: Pterostilbene in subject hippocampal tissue by GC-MS. It is filed as in vivo, rat. As to the method:
Hippocampal brain tissue was extracted from subjects that were euthanized 2-3 weeks following Morris Water Maze testing. The tissue samples were stored at −80° C. and thawed in ice prior to extraction. Tissues were homogenized in 500 μL of phosphate buffer (pH 7.4) then centrifuged (7000 g, 4° C., 15 min). The supernatant was collected and homogenization was repeated. The combined supernatant was extracted with ethyl acetate (500 μL×2). The ethyl acetate extract was dried under a stream of nitrogen.
The dried extract was treated with 30 μL of N,O-bis[trimethylsilyl]trifluoroacetamide:dimethylformamide (BSTFA:DMF, 1:1; Pierce Biotechnology, Inc., Rockford, Ill.) and heated at 70° C. for 40 min. The derivatized sample was used for analysis of pterostilbene by gas chromatography-mass spectrometry (GC-MS). GC-MS was performed on a JEOL GCMate II Instrument (JEOL USA Inc., Peabody, Mass.) using as a J&W DB-5 capillary column (0.25 mm internal diameter, 0.25 μm film thickness, 30 m length; Agilent Technologies, Foster City, Calif.). […] The carrier gas was ultrahigh purity helium, at 1 mL/min flow rate. […] Pterostilbene was determined and quantified from a reconstructed ion chromatogram using m/z 328, 313, 297 and 147. Quantitation was performed from calibration curve of a standard sample of pterostilbene (retention time, 12.5 min). […]

For another data set, the target named is cyclooxygenase-1 (Homo sapiens, UniProt P23219). The settings on record: Rimando et al., 2002; cited from earlier work.
Sequence of cyclooxygenase-1 (P23219 24-599, species assumed): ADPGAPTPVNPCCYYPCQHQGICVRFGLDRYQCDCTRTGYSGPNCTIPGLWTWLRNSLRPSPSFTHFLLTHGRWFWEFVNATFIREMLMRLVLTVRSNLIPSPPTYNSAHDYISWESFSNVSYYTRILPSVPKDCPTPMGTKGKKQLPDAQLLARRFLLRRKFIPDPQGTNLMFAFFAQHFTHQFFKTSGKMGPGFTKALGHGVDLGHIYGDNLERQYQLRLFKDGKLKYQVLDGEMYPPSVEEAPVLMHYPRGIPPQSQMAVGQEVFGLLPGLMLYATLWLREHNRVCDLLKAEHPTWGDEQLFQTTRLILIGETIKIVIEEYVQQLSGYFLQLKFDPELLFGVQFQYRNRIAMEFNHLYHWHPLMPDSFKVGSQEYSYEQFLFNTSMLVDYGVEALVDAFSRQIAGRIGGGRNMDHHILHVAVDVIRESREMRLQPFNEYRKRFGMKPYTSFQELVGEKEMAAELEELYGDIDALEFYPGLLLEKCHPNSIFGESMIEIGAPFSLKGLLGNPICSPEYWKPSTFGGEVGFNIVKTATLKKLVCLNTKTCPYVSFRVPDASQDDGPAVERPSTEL
A further data set concerns the target T1, cyclooxygenase-2 (Homo sapiens, UniProt P35354).
T1 sequence (P35354 18-604): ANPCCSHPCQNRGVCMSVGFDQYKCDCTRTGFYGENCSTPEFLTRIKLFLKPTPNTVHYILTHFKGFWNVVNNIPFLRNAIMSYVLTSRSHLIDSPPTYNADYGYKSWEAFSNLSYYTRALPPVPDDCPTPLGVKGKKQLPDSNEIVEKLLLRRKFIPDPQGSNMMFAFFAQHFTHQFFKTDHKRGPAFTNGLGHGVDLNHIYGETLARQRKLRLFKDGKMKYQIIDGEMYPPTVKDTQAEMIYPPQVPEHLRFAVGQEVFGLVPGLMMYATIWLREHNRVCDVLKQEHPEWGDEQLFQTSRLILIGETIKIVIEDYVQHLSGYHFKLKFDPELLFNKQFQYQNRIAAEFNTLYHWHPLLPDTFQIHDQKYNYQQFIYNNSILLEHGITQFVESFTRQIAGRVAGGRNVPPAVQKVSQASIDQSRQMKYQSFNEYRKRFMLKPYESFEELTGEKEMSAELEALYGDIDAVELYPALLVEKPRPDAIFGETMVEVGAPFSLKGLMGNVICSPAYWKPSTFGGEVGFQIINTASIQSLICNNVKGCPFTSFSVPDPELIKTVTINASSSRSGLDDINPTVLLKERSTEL
The settings on record: Rimando et al., 2002; cited from earlier work.

The next data set deals with weanling male F344 rats. The settings on record: Suh et al., 2007; cited from earlier work.
Data set [3] relates to inducible nitric oxide synthase (iNOS). The settings on record: HT-29 human adenocarcinoma cell lines; Suh et al., 2007; cited from earlier work.
The conditions of data set [4]: compared with resveratrol; Rimando et al., 2002; Stivala et al., 2001; cited from earlier work.

With `COc1cc(/C=C/c2ccc(O)cc2)cc(OC)c1` [pterostilbene, trans-3,5-dimethoxy-4′-hydroxystilbene], the “protection against dopamine-induced decreases in Ca2+ Recovery” value in data set [1] is “protected against the dopamine-induced decreases in Recovery”. The hippocampal pterostilbene in data set [2] (high dose diet 0.016% (10 mg/kg), 12-13 weeks on diet) turned out to be 1.352±0.465 ng/tissue sample. In addition, in data set [2] (low dose diet 0.004% (2.5 mg/kg)), the hippocampal pterostilbene detectability entry is recorded as “only detectable in the high dose pterostilbene group”. Also, the “inhibition of cyclooxygenase-1” value on cyclooxygenase-1 is reported as “moderate inhibition”. Further, the “inhibition of cyclooxygenase-2” value on cyclooxygenase-2 is on record as “weak inhibition”. Moreover, the “azoxymethane-induced colonic aberrant crypt foci growth” value in the data set with weanling male F344 rats is reported as “suppressed azoxymethane-induced colonic aberrant crypt foci growth”. Besides, the “expression of iNOS” value in data set [3] was “inhibits the expression of inducible nitric oxide synthase (iNOS)”. In addition, in data set [4], the antioxidant activity result was “antioxidant activity similar to that of resveratrol”.
